# Source: patent publication US20050032221A1, “Dominant negative variants of methionine aminopeptidase 2 (MetAP2) and clinical uses thereof” (priority 2001, published 2005)
# Legend:
# [1] = test system: peptide substrate (MGMM); experiment: MetAP activity assay of immunopurified HA-tagged yeast MetAP2 with Met-Gly-Met-Met; format: biochemical; details: immunopurified HA-tagged enzyme from map1Δ
# Description: […]. Approximately 2 μg of purified wild-type MetAP2 (WT) and MetAP2 (H174A) was separated on a 10% SDS-PAGE gel and visualized with coomassie blue staining. Specific activity for the wild-type MetAP2 was 11±0.5 U/mg.
# The purification of HA-tagged wild-type and mutant yeast MetAP2 from a yeast map1Δ strain (Klinkenberg et al., Arch. Biochem. Biophys. 347:193-200, 1997) was performed as previously described (Li and Chang, 1995) with slight modifications. A 1-liter yeast culture was grown aerobically at 30° C. in SG/Leu^− medium. Cells were collected at an OD600˜1-2 by centrifugation at 1500×g for 5 min. The pellet was rinsed with buffer XL (10 mM Hepes, pH 7.4; 1.5 mM MgCl2, 10% Glycerol [v/v]) plus 100 mM NaCl and fresh protease inhibitors (1 μg/ml aprotinin, 1 μg/ml leupeptin, 0.7 μg/ml pepstatin A, 1 mM phenylmethylsulfonyl fluoride). Cells were disrupted by vortexing (5 cycles of 1 min vortexing, 1 min on ice) with 0.5-mm acid-washed glass beads (Biospec Products, Inc.,). The lysate was then cleared at 10,000×g for 20 min at 4° C. Cleared lysate was applied to a Protein-Sepharose G column (Pharmacia) previously rinsed and pre-equilibrated with buffer XL and an anti-hemagglutinin epitope ([…]; SEQ ID NO:23) monoclonal antibody (BabCO). After loading, the column was washed with buffer XL until OD280<0.01. […]
# [2] = test system: yeast map1Δ strain; experiment: Yeast growth assay, map1Δ, expression under GAL1 promoter; format: cell-based, yeast (S. cerevisiae)
# Description: A haploid yeast map1Δ strain was transformed to leucine prototrophy with p425GAL1/MAP2 wild-type (WT), p425GAL1/map2 (H174A), or p425GAL1 vector alone (V). Each strain was grown to mid-logarithmic phase at 30° C. in minimal synthetic raffinose medium lacking leucine. Approximately 2×10^5 cells (ABS600) were then streaked onto minimal synthetic plates lacking leucine and supplemented with (A) glucose or (B) galactose. Plates were incubated for 4 days at 30° C.
# A haploid yeast map1Δ strain was transformed to leucine prototrophy with p425GAL1/MAP2 wild-type (WT), p425GAL1/map2 ([…]), p425GAL1/map2 (Δ2-57/H174A) or p425GAL1 vector alone (V). Each strain was grown to mid-logarithmic phase at 30° C. in minimal synthetic raffinose medium lacking leucine. […]
# For relative growth comparison, strains were grown to mid-logarithmic phase in 5 ml of 2% raffinose minimal media lacking leucine and ˜2×10^5 cells (ABS600) were streaked onto SD/Leu^− or SG/Leu^− plates, then incubated for 4 days at 30° C. For quantitative comparison, a growth curve was obtained (FIG. 4). […] The ABS600 of each 1 mL culture was measured and diluted to an ABS600 of 0.2 in 5 mL of SG/Leu^−. Each 5 mL culture was then grown aerobically at 30° C. and the ABS600 was measured in triplicate at one-hour intervals.
# Chain of peptide substrate (MGMM) (P38174 whole entry H174A): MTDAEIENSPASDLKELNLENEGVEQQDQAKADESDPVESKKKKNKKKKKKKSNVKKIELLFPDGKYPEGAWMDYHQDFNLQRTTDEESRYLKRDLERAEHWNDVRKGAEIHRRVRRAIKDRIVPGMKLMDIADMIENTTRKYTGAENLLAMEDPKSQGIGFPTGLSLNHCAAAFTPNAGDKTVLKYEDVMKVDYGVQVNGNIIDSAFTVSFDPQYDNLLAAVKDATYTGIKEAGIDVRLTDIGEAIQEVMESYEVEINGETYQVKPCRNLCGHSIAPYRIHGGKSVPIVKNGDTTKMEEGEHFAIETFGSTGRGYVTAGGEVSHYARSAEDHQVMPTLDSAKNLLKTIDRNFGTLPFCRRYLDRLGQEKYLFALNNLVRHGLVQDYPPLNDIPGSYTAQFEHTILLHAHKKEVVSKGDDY
substance,measurement,setting,value
"MetAP2 (H174A): variant yeast MetAP2 with His174 replaced by alanine, N-terminal HA tag; dominant negative (SEQ ID NO:8)",activity against a peptide substrate (MGMM) in vitro,[1],no detectable activity
same,doubling time,"[2]; SG/Leu- medium, 30° C.",9.3 ± 0.6 h
same,colony size / growth relative to map1Δ with vector alone,"[2]; galactose plates, 4 days at 30° C.",smaller colonies
